ChEMBL document CHEMBL1130041, “Halogenated 4-(phenoxymethyl)piperidines as potential radiolabeled probes for sigma-1 receptors: in vivo evaluation of [123I]-1-(iodopropen-2-yl)-4-[(4-cyanophenoxy)methyl]pip eri dine” (J Med Chem, 1997)

Tests used:
Rattus norvegicus [1] = organism: Rattus norvegicus; assay: Biodistribution of [123I]-label in rat muscle was reported at 2 hr post injection. Value shown is %ID/g of tissue; type: ADME, organism-based; conditions: in vivo
Rattus norvegicus [2] = organism: Rattus norvegicus; assay: Biodistribution of [123I]-label in rat blood was reported at 0.33 hr post injection. Value shown is %ID/g of tissue; type: ADME, organism-based; conditions: in vivo
Rattus norvegicus [3] = organism: Rattus norvegicus; assay: Biodistribution of [123I]-label in rat spleen was reported at 4 hr post injection. Value shown is %ID/g of tissue; type: ADME, organism-based; conditions: in vivo
Rattus norvegicus [4] = organism: Rattus norvegicus; assay: Biodistribution of [123I]-label in rat brain was reported at 0.33 hr post injection. Value shown is %ID/organ; type: ADME, organism-based; conditions: in vivo
[5] = In Vitro binding affinity for 5-hydroxytryptamine 2 receptor
Rattus norvegicus [6] = organism: Rattus norvegicus; assay: Biodistribution of [123I]-label in rat liver was reported at 24 h post injection. Value shown is %ID/g of tissue; type: ADME, organism-based; conditions: in vivo
Rattus norvegicus [7] = organism: Rattus norvegicus; assay: Biodistribution of [123I]-label in rat kidneys was reported at 24 hr post injection. Value shown is %ID/g of tissue; type: ADME, organism-based, Kidney; conditions: in vivo
Rattus norvegicus [8] = organism: Rattus norvegicus; assay: Distribution of [123I]-label in rat brain (medulla pons) was reported at 60 min post injection. Value shown is %ID/g of tissue; type: ADME, organism-based; conditions: in vivo, 1 h
Rattus norvegicus [9] = organism: Rattus norvegicus; assay: Biodistribution of [123I]-label in rat muscle was reported at 0.33 hr post injection. Value shown is %ID/g of tissue; type: ADME, organism-based; conditions: in vivo
Rattus norvegicus [10] = organism: Rattus norvegicus; assay: Biodistribution of [123I]-label in rat stomach was reported at 0.33 hr post injection. Value shown is %ID/g of tissue; type: ADME, organism-based; conditions: in vivo
Rattus norvegicus [11] = organism: Rattus norvegicus; assay: Biodistribution of [123I]-label in rat stomach was reported at 1 h post injection. Value shown is %ID/g of tissue; type: ADME, organism-based; conditions: in vivo
Rattus norvegicus [12] = organism: Rattus norvegicus; assay: Biodistribution of [123I]-label in rat heart was reported at 0.33 hr post injection. Value shown is %ID/g of tissue; type: ADME, organism-based; conditions: in vivo
Rattus norvegicus [13] = organism: Rattus norvegicus; assay: Distribution of [123I]-label in rat brain (cerebellum) was reported at 20 min post injection. Value shown is %ID/g of tissue; type: ADME, organism-based; conditions: in vivo
Rattus norvegicus [14] = organism: Rattus norvegicus; assay: Distribution of [123I]-label in rat brain (diencephalon) was reported at 20 min post injection. Value shown is %ID/g of tissue; type: ADME, organism-based; conditions: in vivo
Rattus norvegicus [15] = organism: Rattus norvegicus; assay: Biodistribution of [123I]-label in rat brain was reported at 24 hr post injection. Value shown is %ID/g of tissue; type: ADME, organism-based; conditions: in vivo
[16] = Partition coefficient (logP); type: physicochemical; conditions: octanol/water
Rattus norvegicus [17] = organism: Rattus norvegicus; assay: Biodistribution of [123I]-label in rat brain was reported at 4 hr post injection. Value shown is %ID/organ; type: ADME, organism-based; conditions: in vivo
Rattus norvegicus [18] = organism: Rattus norvegicus; assay: Biodistribution of [123I]-label in rat blood was reported at 4 hr post injection. Value shown is %ID/g of tissue; type: ADME, organism-based; conditions: in vivo
Rattus norvegicus [19] = organism: Rattus norvegicus; assay: Biodistribution of [123I]-label in rat thyroid was reported at 4 hr post injection. Value shown is %ID/organ; type: ADME, organism-based, Thyroid gland; conditions: in vivo
Rattus norvegicus [20] = organism: Rattus norvegicus; assay: Distribution of [123I]-label in rat brain (frontal cortex) was reported at 60 min post injection. Value shown is %ID/g of tissue; type: ADME, organism-based; conditions: in vivo, 1 h
Rattus norvegicus [21] = organism: Rattus norvegicus; assay: Biodistribution of [123I]-label in rat thyroid was reported at 24 hr post injection. Value shown is %ID/organ; type: ADME, organism-based, Thyroid gland; conditions: in vivo
Rattus norvegicus [22] = organism: Rattus norvegicus; assay: Biodistribution of [123I]-label in rat blood was reported at 24 hr post injection. Value shown is %ID/g of tissue; type: ADME, organism-based; conditions: in vivo
Rattus norvegicus [23] = organism: Rattus norvegicus; assay: Biodistribution of [123I]-label in rat stomach was reported at 4 hr post injection. Value shown is %ID/g of tissue; type: ADME, organism-based; conditions: in vivo
Rattus norvegicus [24] = organism: Rattus norvegicus; assay: Biodistribution of [123I]-label in rat intestine was reported at 4 hr post injection. Value shown is %ID/g of tissue; type: ADME, organism-based; conditions: in vivo
Rattus norvegicus [25] = organism: Rattus norvegicus; assay: Biodistribution of [123I]-label in rat stomach was reported at 24 hr post injection. Value shown is %ID/g of tissue; type: ADME, organism-based; conditions: in vivo
Rattus norvegicus [26] = organism: Rattus norvegicus; assay: Biodistribution of [123I]-label in rat brain was reported at 2 hr post injection. Value shown is %ID/g of tissue; type: ADME, organism-based; conditions: in vivo
Rattus norvegicus [27] = organism: Rattus norvegicus; assay: Biodistribution of [123I]-label in rat kidneys was reported at 2 hr post injection. Value shown is %ID/g of tissue; type: ADME, organism-based, Kidney; conditions: in vivo
Rattus norvegicus [28] = organism: Rattus norvegicus; assay: Distribution of [123I]-label in rat brain (diencephalon) was reported at 60 min post injection. Value shown is %ID/g of tissue; type: ADME, organism-based; conditions: in vivo, 1 h
Rattus norvegicus [29] = organism: Rattus norvegicus; assay: Biodistribution of [123I]-label in rat spleen was reported at 24 h post injection. Value shown is %ID/g of tissue; type: ADME, organism-based; conditions: in vivo
Rattus norvegicus [30] = organism: Rattus norvegicus; assay: Biodistribution of [123I]-label in rat thyroid was reported at 0.33 hr post injection. Value shown is %ID/organ; type: ADME, organism-based, Thyroid gland; conditions: in vivo
Rattus norvegicus [31] = organism: Rattus norvegicus; assay: Biodistribution of [123I]-label in rat heart was reported at 1 hr post injection. Value shown is %ID/g of tissue; type: ADME, organism-based; conditions: in vivo
Rattus norvegicus [32] = organism: Rattus norvegicus; assay: Biodistribution of [123I]-label in rat kidneys was reported at 4 hr post injection. Value shown is %ID/g of tissue; type: ADME, organism-based, Kidney; conditions: in vivo
Rattus norvegicus [33] = organism: Rattus norvegicus; assay: Biodistribution of [123I]-label in rat kidneys was reported at 0.33 hr post injection. Value shown is %ID/g of tissue; type: ADME, organism-based, Kidney; conditions: in vivo
Rattus norvegicus [34] = organism: Rattus norvegicus; assay: Biodistribution of [123I]-label in rat brain was reported at 24 hr post injection. Value shown is %ID/organ; type: ADME, organism-based; conditions: in vivo
Rattus norvegicus [35] = organism: Rattus norvegicus; assay: Distribution of [123I]-label in rat brain (striatum) was reported at 20 min post injection. Value shown is %ID/g of tissue; type: ADME, organism-based; conditions: in vivo
Rattus norvegicus [36] = organism: Rattus norvegicus; assay: Biodistribution of [123I]-label in rat heart was reported at 24 hr post injection. Value shown is %ID/g of tissue; type: ADME, organism-based; conditions: in vivo
Rattus norvegicus [37] = organism: Rattus norvegicus; assay: Biodistribution of [123I]-label in rat intestine was reported at 1 hr post injection. Value shown is %ID/g of tissue; type: ADME, organism-based; conditions: in vivo
Rattus norvegicus [38] = organism: Rattus norvegicus; assay: Biodistribution of [123I]-label in rat brain was reported at 1 hr post injection. Value shown is %ID/organ; type: ADME, organism-based; conditions: in vivo
Rattus norvegicus [39] = organism: Rattus norvegicus; assay: Distribution of [123I]-label in rat brain (posterior cortex) was reported at 20 min post injection. Value shown is %ID/g of tissue; type: ADME, organism-based; conditions: in vivo
Rattus norvegicus [40] = organism: Rattus norvegicus; assay: Biodistribution of [123I]-label in rat blood was reported at 2 hr post injection. Value shown is %ID/g of tissue; type: ADME, organism-based; conditions: in vivo
Rattus norvegicus [41] = organism: Rattus norvegicus; assay: Biodistribution of [123I]-label in rat blood was reported at 1 hr post injection. Value shown is %ID/g of tissue; type: ADME, organism-based; conditions: in vivo
Rattus norvegicus [42] = organism: Rattus norvegicus; assay: Distribution of [123I]-label in rat brain (posterior cortex) was reported at 60 min post injection. Value shown is %ID/g of tissue; type: ADME, organism-based; conditions: in vivo, 1 h
Rattus norvegicus [43] = organism: Rattus norvegicus; assay: Biodistribution of [123I]-label in rat muscle was reported at 4 hr post injection. Value shown is %ID/g of tissue; type: ADME, organism-based; conditions: in vivo
Rattus norvegicus [44] = organism: Rattus norvegicus; assay: Biodistribution of [123I]-label in rat spleen was reported at 2 hr post injection. Value shown is %ID/g of tissue; type: ADME, organism-based; conditions: in vivo
Rattus norvegicus [45] = organism: Rattus norvegicus; assay: Biodistribution of [123I]-label in rat lung was reported at 2 hr post injection. Value shown is %ID/g of tissue; type: ADME, organism-based; conditions: in vivo
Rattus norvegicus [46] = organism: Rattus norvegicus; assay: Biodistribution of [123I]-label in rat liver was reported at 0.33 hr post injection. Value shown is %ID/g of tissue; type: ADME, organism-based; conditions: in vivo

ID/g (Rattus norvegicus [1]): 0.22% | ID/g (Rattus norvegicus [2]): 0.05% | ID/g (Rattus norvegicus [3]): 0.93% | ID (Rattus norvegicus [4]): 1.97% | Ki [5]: > 10 µM | ID/g (Rattus norvegicus [6]): 0.55% | ID/g (Rattus norvegicus [7]): 0.59% | ID/g (Rattus norvegicus [8]): 1% | ID/g (Rattus norvegicus [9]): 0.23% | ID/g (Rattus norvegicus [10]): 0.46% | ID/g (Rattus norvegicus [11]): 0.65% | ID/g (Rattus norvegicus [12]): 1.25% | ID/g (Rattus norvegicus [13]): 1.01% | ID/g (Rattus norvegicus [14]): 1.03% | ID/g (Rattus norvegicus [15]): 0.84% | logP [16]: 3.36 | ID (Rattus norvegicus [17]): 2.03% | ID/g (Rattus norvegicus [18]): 0.02% | ID (Rattus norvegicus [19]): 0.34% | ID/g (Rattus norvegicus [20]): 1.29% | ID (Rattus norvegicus [21]): 1.19% | ID/g (Rattus norvegicus [22]): 0.01% | ID/g (Rattus norvegicus [23]): 0.27% | ID/g (Rattus norvegicus [24]): 0.81% | ID/g (Rattus norvegicus [25]): 0.18% | ID/g (Rattus norvegicus [26]): 0.91% | ID/g (Rattus norvegicus [27]): 1.3% | ID/g (Rattus norvegicus [28]): 1.18% | ID/g (Rattus norvegicus [29]): 0.87% | ID (Rattus norvegicus [30]): 0.09% | ID/g (Rattus norvegicus [31]): 1.21% | ID/g (Rattus norvegicus [32]): 1.31% | ID/g (Rattus norvegicus [33]): 1.64% | ID (Rattus norvegicus [34]): 1.61% | ID/g (Rattus norvegicus [35]): 1.17% | ID/g (Rattus norvegicus [36]): 0.18% | ID/g (Rattus norvegicus [37]): 0.82% | ID (Rattus norvegicus [38]): 1.96% | ID/g (Rattus norvegicus [39]): 1.43% | ID/g (Rattus norvegicus [40]): 0.03% | ID/g (Rattus norvegicus [41]): 0.08% | ID/g (Rattus norvegicus [42]): 1.51% | ID/g (Rattus norvegicus [43]): 0.2% | ID/g (Rattus norvegicus [44]): 0.89% | ID/g (Rattus norvegicus [45]): 3.75% | ID/g (Rattus norvegicus [46]): 0.33%
SMILES: N#Cc1ccc(OCC2CCN(C/C=C/I)CC2)cc1
